Measurements from patent US20060216295A1, “Methods of identifying therapeutic targets for the treatment of vulvovaginal atrophy” (Wyeth, priority 2005, published 2006).
Where two headings read alike, the source gives them in different places.

How the values were obtained:
[1] = tested on: vaginal epithelium; type: in vivo, rat; details: for whether the compound mimics the action of 17β-estradiol in the vagina: ovariectomized rats treated intravaginally, Example 3; for effect on the rat vaginal epithelium, in words: ovariectomized rats; for histological change of the vaginal epithelial layer compared to vehicle: rats, intravaginal dosing, Example 2
Method: FIG. 4 represents H&E stained cross-sections of rat vagina after 5 days of intravaginal treatment with 100 nM betacellulin in 2% carbomer vehicle.
These histologic changes are the hallmark of a vaginal estrogenic response. Tables 2 and 3 detail the studies performed with mersalyl and betacellulin. The body of the table indicates the number of positive histological changes over the number of samples evaluated.
Table 4 includes the studies performed with the PHD/FIH non-specific inhibitor DMOG, whereas Table 5 is the studies performed with 2,4-DPD.
Table 6 includes the studies performed with the FIH specific inhibitor 3,4-dihydroxybenzoate (3,4-DHB), whereas Table 7 outlines the studies performed with N-oxalyl-D-alanine (NODA).

[2] = tested on: HIF1α transcription; details: cited from earlier work
[3] = tested on: vaginal epithelium; type: in vivo, rat; details: intravaginal; 50 nM 17β-estradiol, 10 nM recombinant mouse betacellulin, 1 μM Mersalyl; 2% carbomer vehicle
[4] = tested on: Betacellulin; assay: RNA expression analysis (Affymetrix RAE230A/B arrays) of vaginal vault of ovariectomized rats after 17β-estradiol; type: in vivo, rat; details: Betacellulin mRNA, single dose 20 μg/kg 17β-estradiol subcutaneously
From the text: RNA was harvested from the entire vaginal vault at each time point and was subjected to RNA expression analysis. Five micrograms of total RNA were used to generate biotin labeled cRNA using an oligo T7 primer in a reverse transcription reaction followed by in vitro transcription reaction with biotin labeled UTP and CTP. Ten micrograms of cRNA were fragmented and hybridized to RAE230A and RAE230B arrays (Affymetrix, Santa Clara, Calif.). Hybridized arrays were stained according to manufacturer's protocols on a Fluidics Station 450 and scanned on an Affymetrix scanner 3000. All array images were visually inspected for defects and quality. Signal values were determined using Gene Chip Operating System 1.0 (GCOS, Affymetrix). For each array, all probe sets were normalized to a mean signal intensity value of 100. The default GCOS statistical values were used for all analyses. Signal values and absolute detection calls were imported into Genesis 2.0 (GeneLogic, Gaithersburg, Md.) for analysis.
A gene was considered to be detectible if the mean expression in either the treated or untreated group was 50 signal units and the percentage of samples with a Present (P) call as determined by GCOS default settings was greater than or equal to 25%. A gene was considered to be regulated if the difference between the treated and untreated groups met the following criteria: (1) the gene had to be detected in at least 25% of the samples of at least one of the groups, (2) the fold change between was at least 1.7, and (3) the p-value based on a T-test had to be ≦0.01. Nine hundred fifty-nine qualifiers on the RAE230A array and 707 qualifiers on the RAE230B array met these conditions.
Based on the time course of response and the biological function associated with them, HIF1α and betacellulin were selected as candidate targets for treatment of vulvovaginal atrophy. These proteins were selected for further study because they were regulated by estradiol after 6 hours of treatment and thus can be expected to be at the top of the estrogenic signaling cascade.

[5] = tested on: HIF-regulated transcripts; details: in vitro; cited from earlier work

C[C@@H](NC(=O)C(=O)O)C(=O)O [NODA, N-oxalyl-D-alanine]
number of positive histological responses/number of samples evaluated ([1]; OVX rat, NODA 10 μM intravaginal, Study 1): 1/4 | number of positive histological responses/number of samples evaluated ([1]; OVX rat, NODA 10 μM intravaginal, Study 2): 1/3 | number of positive histological responses/number of samples evaluated ([1]; OVX rat, NODA 10 μM intravaginal, Study 3): 0/3 | number of positive histological responses/number of samples evaluated ([1]; OVX rat, NODA 100 μM intravaginal, Study 1): 0/4 | number of positive histological responses/number of samples evaluated ([1]; OVX rat, NODA 100 μM intravaginal, Study 2): 0/3 | number of positive histological responses/number of samples evaluated ([1]; OVX rat, NODA 100 μM intravaginal, Study 3): 0/3 | number of positive histological responses/number of samples evaluated ([1]; OVX rat, NODA 1 mM intravaginal, Study 1): 0/4 | number of positive histological responses/number of samples evaluated ([1]; OVX rat, NODA 1 mM intravaginal, Study 2): 0/3 | number of positive histological responses/number of samples evaluated ([1]; OVX rat, NODA 1 mM intravaginal, Study 3): 1/3 | number of positive histological responses/number of samples evaluated ([1]; OVX rat, NODA 1 mM intravaginal, Study 4): 1/4 | number of positive histological responses/number of samples evaluated ([1]; OVX rat, NODA 10 mM intravaginal, Study 1): 3/4 | number of positive histological responses/number of samples evaluated ([1]; OVX rat, NODA 10 mM intravaginal, Study 2): 0/3 | number of positive histological responses/number of samples evaluated ([1]; OVX rat, NODA 10 mM intravaginal, Study 3): 1/3 | number of positive histological responses/number of samples evaluated ([1]; OVX rat, NODA 10 mM intravaginal, Study 4): 0/4 | whether the compound mimics the action of 17β-estradiol in the vagina [1]: variable results

COC(CNC(=O)c1ccccc1OCC(=O)O)[CH2][Hg][OH] (centres unmarked) [Mersalyl, mersalyl]
upregulation of HIF1α transcription [2]: upregulate HIF1α transcription | histology of rat vagina (H&E stained cross-sections) compared to vehicle, FIG. 1 [3]: positive effect | number of positive histological changes over the number of samples evaluated ([1]; Mersalyl dose 0.1 μM intravaginal, Study 2): 2/4 | number of positive histological changes over the number of samples evaluated ([1]; Mersalyl dose 0.1 μM intravaginal, Study 3): 4/4 | number of positive histological changes over the number of samples evaluated ([1]; Mersalyl dose 0.1 μM intravaginal, Study 4): 4/4 | number of positive histological changes over the number of samples evaluated ([1]; Mersalyl dose 1 μM intravaginal, Study 1): 3/3 | number of positive histological changes over the number of samples evaluated ([1]; Mersalyl dose 1 μM intravaginal, Study 2): 4/4/ | number of positive histological changes over the number of samples evaluated ([1]; Mersalyl dose 1 μM intravaginal, Study 3): 2/3 | number of positive histological changes over the number of samples evaluated ([1]; Mersalyl dose 1 μM intravaginal, Study 4): 4/4/ | number of positive histological changes over the number of samples evaluated ([1]; Mersalyl dose 10 μM intravaginal, Study 1): 0/3 | number of positive histological changes over the number of samples evaluated ([1]; Mersalyl dose 10 μM intravaginal, Study 2): 0/4 | number of positive histological changes over the number of samples evaluated ([1]; Mersalyl dose 100 μM intravaginal, Study 1): 0/3 | effect on the rat vaginal epithelium, in words [1]: expansion of the vaginal epithelium in a manner similar to treatment with 17β-estradiol | histological change of the vaginal epithelial layer compared to vehicle [1]: clear thickening and differentiation of the vaginal epithelial layer

COC(=O)CNC(=O)C(=O)OC [DMOG, N-(methoxyooxoacetyl)-glycine methyl ester]
number of positive histological responses/number of samples evaluated ([1]; OVX rat, DMOG 1 μM intravaginal, Study 2): 0/4 | number of positive histological responses/number of samples evaluated ([1]; OVX rat, DMOG 10 μM intravaginal, Study 1): 3/3 | number of positive histological responses/number of samples evaluated ([1]; OVX rat, DMOG 10 μM intravaginal, Study 2): 2/3 | number of positive histological responses/number of samples evaluated ([1]; OVX rat, DMOG 10 μM intravaginal, Study 3): 2/4 | number of positive histological responses/number of samples evaluated ([1]; OVX rat, DMOG 100 μM intravaginal, Study 1): 0/3 | number of positive histological responses/number of samples evaluated ([1]; OVX rat, DMOG 1 mM intravaginal, Study 1): 0/3 | number of positive histological responses/number of samples evaluated ([1]; OVX rat, DMOG 1 mM intravaginal, Study 3): 1/4 | whether the compound mimics the action of 17β-estradiol in the vagina [1]: variable results

C[C@]12CC[C@@H]3c4ccc(O)cc4CC[C@H]3[C@@H]1CC[C@@H]2O [17β-estradiol]
histology of rat vagina (H&E stained cross-sections) compared to vehicle, FIG. 1 [3]: positive effect | Fold Change Over Vehicle ([4]; 6 hour): +2.9 | Fold Change Over Vehicle ([4]; 72 hour): +2.8 | Fold Change Over Vehicle ([4]; 120 hour (5 day)): +1.6

CODDD: peptide corresponding to amino acids 549-582 of HIF1α (C-terminal oxygen dependent degradation domain), FIG. 3
upregulation of HIF-regulated transcripts [5]: capable of upregulating HIF-regulated transcripts in vitro

CCOC(=O)c1ccnc(C(=O)OCC)c1 [2,4-DPD, 2,4-pyridinedicarboxylic acid, diethyl ester]
number of positive histological responses/number of samples evaluated ([1]; OVX rat, 2,4-DPD 0.1 μM intravaginal, Study 2): 0/4 | number of positive histological responses/number of samples evaluated ([1]; OVX rat, 2,4-DPD 1 μM intravaginal, Study 2): 1/4 | number of positive histological responses/number of samples evaluated ([1]; OVX rat, 2,4-DPD 10 μM intravaginal, Study 1): 0/4 | number of positive histological responses/number of samples evaluated ([1]; OVX rat, 2,4-DPD 10 μM intravaginal, Study 2): 1/3 | number of positive histological responses/number of samples evaluated ([1]; OVX rat, 2,4-DPD 10 μM intravaginal, Study 3): 1/4 | whether the compound mimics the action of 17β-estradiol in the vagina [1]: variable results

O=C(O)c1ccc(O)c(O)c1 [3,4-DHB, 3,4-dihydroxybenzoate]
number of positive histological responses/number of samples evaluated ([1]; OVX rat, 3,4-DHB 10 μM intravaginal, Study 1): 1/4 | number of positive histological responses/number of samples evaluated ([1]; OVX rat, 3,4-DHB 100 μM intravaginal, Study 1): 0/4 | number of positive histological responses/number of samples evaluated ([1]; OVX rat, 3,4-DHB 1 mM intravaginal, Study 1): 0/4 | number of positive histological responses/number of samples evaluated ([1]; OVX rat, 3,4-DHB 1 mM intravaginal, Study 2): 0/4 | number of positive histological responses/number of samples evaluated ([1]; OVX rat, 3,4-DHB 1 mM intravaginal, Study 3): 0/3 | number of positive histological responses/number of samples evaluated ([1]; OVX rat, 3,4-DHB 10 mM intravaginal, Study 1): 4/4 | number of positive histological responses/number of samples evaluated ([1]; OVX rat, 3,4-DHB 10 mM intravaginal, Study 2): 1/4 | number of positive histological responses/number of samples evaluated ([1]; OVX rat, 3,4-DHB 10 mM intravaginal, Study 3): 2/3 | number of positive histological responses/number of samples evaluated ([1]; OVX rat, 3,4-DHB 10 mM intravaginal, Study 4): 1/3 | whether the compound mimics the action of 17β-estradiol in the vagina [1]: variable results

B1: NODDD: peptide corresponding to amino acids 343417 of HIF1α (N-terminal oxygen dependent degradation domain), FIG. 3 (peptide)
chain: SGIIQHDLIFSLQQTECVLKPVESSDMKMTQLFTKVESEDTSSLFDKLKKEPDALTLLAPAAGDTIISLDFGSND
modifications: NODDD sequence from Hif1a (amino acids 343-417)
upregulation of HIF-regulated transcripts [5]: capable of upregulating HIF-regulated transcripts in vitro

B2: Betacellulin: mouse betacellulin (Asp32-Gln118) generated in E. coli by R&D Systems (catalog # 1025-CE); member of the EGF family (protein)
chain: DGNTTRTPETNGSLCGAPGENCTGTTPRQKVKTHFSRCPKQYKHYCIHGRCRFVVDEQTPSCICEKGYFGARCERVDLFYLQQDRGQ
modifications: Mouse betacellulin peptide (asp32-gln118)
notes: mouse betacellulin (Asp32-Gln118) generated in E. coli by R&D Systems (catalog # 1025-CE); member of the EGF family
histology of rat vagina (H&E stained cross-sections) compared to vehicle, FIG. 1 [3]: positive effect | number of positive histological changes over the number of samples evaluated ([1]; Betacellulin dose 10 nM intravaginal, Study 1): 3/3 | number of positive histological changes over the number of samples evaluated ([1]; Betacellulin dose 10 nM intravaginal, Study 2): 0/4 | number of positive histological changes over the number of samples evaluated ([1]; Betacellulin dose 10 nM intravaginal, Study 3): 3/3 | number of positive histological changes over the number of samples evaluated ([1]; Betacellulin dose 100 nM intravaginal, Study 2): 3/4 | number of positive histological changes over the number of samples evaluated ([1]; Betacellulin dose 100 nM intravaginal, Study 3): 2/3 | number of positive histological changes over the number of samples evaluated ([1]; Betacellulin dose 1 μM intravaginal, Study 2): 2/4 | effect on the rat vaginal epithelium, in words [1]: mimics the effects of estrogen on the rat vaginal epithelium | histological change of the vaginal epithelial layer compared to vehicle [1]: clear thickening and differentiation of the vaginal epithelial layer
